Measured values as given in publication PMC9065877, “Safety, tolerability and pharmacokinetics of the oligomer modulator anle138b with exposure levels sufficient for therapeutic efficacy in a murine Parkinson model: A randomised, double-blind, placebo-controlled phase 1a trial” (EBioMedicine, 2022).

Legend:
[1] = Single ascending dose (SAD) oral pharmacokinetics of anle138b in healthy subjects, plasma; type: in vivo, human; conditions: for AUC(0-t) / Cmax: human, plasma, fasted, geometric mean (CV%); for AUC(0-t): read-out: AUC(0-24)
Protocol: (§1) This was a single-centre, double-blind, randomised, placebo-controlled single ascending dose (SAD) and multiple ascending dose (MAD) study of anle138b in doses of up to 300 mg per day in healthy subjects. In addition, the effect of food (FES) on the PK of anle138b in healthy subjects was examined using single doses of 150 mg. Participants were recruited from Quotient Sciences (Nottingham, UK) volunteer database.
(§2) As a safety precaution, sentinel dosing was performed for all SAD and MAD cohorts. In SAD, subjects received a single dose of anle138b or placebo after fasting from all food and drink (except water) for a minimum of 8 h prior to dosing. The dosing in the four SAD-cohorts were 50 mg, 100 mg, 200 mg and 300 mg of free anle138b equivalent, respectively. In the MAD part, participants received anle138b or placebo once daily (QD) for 7 days after fasting from all food and drink (except water) for a minimum of 8 h prior to dosing. The dosing in the three MAD-cohorts was 100 mg, 200 mg and 300 mg of free anle138b equivalent, respectively. Post dosing mouth and hand checks were conducted to ensure the capsules were swallowed. In-study decisions regarding continuation and dose escalation were made by the safety advisory committee (SAC) comprising the principal investigator, the sponsor's medical monitor and a PK expert. For dose escalation to proceed, data needed to be available from a minimum of 6 subjects per cohort with completed per protocol safety and PK assessments up to 48 h after dosing to ensure at least 4 subjects had received active IMP. The decision to proceed to the next higher dose level was based on safety, tolerability and available PK data to 48 h post-dose. The following data were required: Adverse events, vital signs, safety laboratory, ECG, physical examinations, plasma concentrations of anle138b with interim PK parameter estimations (Tmax, Cmax, AUC(0-24), AUC(0-tau), AUC(0-last) and T½, where applicable). Data were provided to the SAC in accordance with Quotient Sciences’ standard operating procedure (SOP) on interim dose decision-making and dose escalation.
(§3) Secondary outcome measures were the oral PK of single (SAD) and multiple (MAD) ascending doses of anle138b in the fasted state as well as the effect of co-administration with food on the PK of anle138b. To this end PK blood samples were taken at day 1 (and for MAD day 7) pre-dose and at 0·5, 1, 1·5, 2, 3, 4, 6, 8, 10, 12, 16 and 20 h post-dose, at days 2 to 6 pre-dose only (MAD) and 24, 30, 36 and 48 h post final dose. Analysis of anle138b in plasma was done at Aptuit, an Evotec company, in Verona, Italy. Time point of last quantifiable data was seen to increase with an increase in dose as follows: SAD: from the 50mg dose (subjects ranged between 8-24h) to the 300mg dose (subjects ranged between 36-48h). MAD: from the 100mg dose (subjects ranged between 8-36h) to the 300mg dose (subjects ranged between 20-48h). In FES, subjects ranged between 24-48h.
(§4) The study was exploratory and no formal sample size calculation was made. Based on experience from previous studies of similar design, eight subjects per cohort were enrolled for parts 1 (SAD) and 2 (MAD) and a total of twelve subjects for part 3 (FES). Populations and analysis sets were determined for safety and PK data after database lock using the criteria defined in the reporting and analysis plan. The safety population and safety analysis set for SAD and MAD were defined after database lock but prior to study unblinding. Statistical analysis and production of summary tables, figures and listings for all safety data (AEs, vital signs, ECGs and safety laboratory assessments) including changes from baseline as required in this study were performed using the statistical package SAS (v9·4). Additional statistics was provided for PK-related data including coefficient of variation (CV%), geometric mean, geometric CV%, and the number n of subjects that were included in the natural logarithmic transformation). […]

[2] = 28-day cynomolgus monkey toxicity study; conditions: in vivo; for Cmax: 125 mg/kg/day, read-out: Cmax at NOAEL
Text: (§5) This trial followed the recommendations of the EMA (European Medicines Agency) (EMEA/CHMP/SWP/28367/07 Rev. 1; 20 July 2017) and the FDA (Food and Drug Administration) (Guidance for Industry: Estimating the Maximum Safe Starting Dose in Initial Clinical Trials for Therapeutics in Adult Healthy Volunteers. U.S. Department of Health and Human Services Food and Drug Administration Center for Drug Evaluation and Research (CDER) July 2005) for dose finding in a first-in-human study. The safe starting dose was set based on toxicity studies in animals. In a 28-day toxicity study in rats, the no-observed-adverse-effect-level (NOAEL) was determined to be 50 mg/kg/day (human equivalent dose of 8·1 mg/kg using the FDA factor of 6·2 according to the FDA Guidance for Industry “Estimating the Maximum Safe Starting Dose in Initial Clinical Trials for Therapeutics in Adult Healthy Volunteers”). Cmaxǀexposure at 50 mg in males were 2460ǀ25600 and in females 2680ǀ21700 ng/mL ǀ ng*h/mL. In a 28-day cynomolgus monkey toxicity study, the NOAEL was 125 mg/kg/day (human equivalent dose of 40·3 mg/kg). Cmaxǀexposure at 125 mg/kg/day were 3170ǀ15700 (males) and 2720ǀ9720 (females) ng/mL ǀ ng*h/mL. Based upon these NOAELs a safe starting dose derived from the more sensitive species (rat) was calculated using a safety factor of 10 (i.e., 0·8 mg/kg), which corresponds to a dose of approximately 50 mg assuming a body weight of 60 kg. […] Escalation between doses was planned to be flexible depending on emerging results but not to exceed an increment of 2-fold.

[3] = 28-day toxicity study in rats; conditions: rat, in vivo; for Cmax: at 50 mg, read-out: Cmax at NOAEL
Text: as §5

[4] = Multiple ascending dose (MAD, QD 7 days) oral pharmacokinetics of anle138b in healthy subjects, plasma; type: in vivo, human
Protocol: as §1, §2, §3, §4

[5] = SAD Cohort B 100 mg single oral dose
[6] = SAD Cohort C 200 mg single oral dose
[7] = SAD Cohort D 300 mg single oral dose

## Brc1cccc(-c2cc(-c3ccc4c(c3)OCO4)n[nH]2)c1 [anle138b, 3-(1,3-benzodioxol-5-yl)-5-(3-bromophenyl)-1H-pyrazole]
[1]; SAD 50mg dose
  Time point of last quantifiable data (range of subjects): 8 to 24 h
[1]; SAD 300mg dose
  Time point of last quantifiable data (range of subjects): 36 to 48 h
[1]; SAD Cohort A 50 mg single oral dose
  AUC(0-t): 113 ng·h/mL
[1]; [5]
  Cmax: 156 ng/mL
  AUC(0-t): 366 ng·h/mL
[1]; [6]
  Cmax: 458 ng/mL
  AUC(0-t): 1090 ng·h/mL
[1]; [7]
  Cmax: 704 ng/mL
  AUC(0-t): 1650 ng·h/mL
[1]; single 100 mg dose
  Achievement of potential therapeutic exposure (based upon nonclinical in vivo models): already achieved after single 100 mg dose
[2]; female, females
  Cmax: 2720 ng/mL
[2]; 28-day toxicity study
  NOAEL at 28 days: 125 mg/kg/day
[2]; male, males
  Cmax: 3170 ng/mL
[3]; female, females
  Cmax: 2680 ng/mL
[3]; male, males
  Cmax: 2460 ng/mL
[3]; 28-day toxicity study, read-out: no-observed-adverse-effect-level (NOAEL)
  NOAEL at 28 days: 50 mg/kg/day
[4]; MAD 100mg dose
  Time point of last quantifiable data (range of subjects): 8 to 36 h
[4]; MAD 300mg dose
  Time point of last quantifiable data (range of subjects): 20 to 48 h
[4]; MAD day 7 vs day 1
  Effect of multiple dosing on Tmax: unaffected by multiple dosing
[4]; highest dose tested (300 mg), multiple dosing
  Exposure relative to the level required for full efficacy in PD mouse model (≥300 ng*h/ml): more than twice this exposure
[4]; human, plasma, oral, 100 mg, MAD Cohort A 100 mg QD, dosing day 1, fasted, geometric mean (CV%)
  Cmax: 135 ng/mL
[4]; human, plasma, oral, 100 mg, MAD Cohort A 100 mg QD, dosing day 1, fasted, geometric mean (CV%), read-out: AUC(0-24)
  AUC(0-t): 261 ng·h/mL
[4]; human, plasma, oral, 100 mg, MAD Cohort A 100 mg QD, dosing day 7, fasted, geometric mean (CV%), read-out: AUC(0-24)
  AUC(0-t): 141 ng·h/mL
[4]; human, plasma, oral, 200 mg, MAD Cohort B 200 mg QD, dosing day 1, fasted, geometric mean (CV%)
  Cmax: 447 ng/mL
[4]; human, plasma, oral, 200 mg, MAD Cohort B 200 mg QD, dosing day 1, fasted, geometric mean (CV%), read-out: AUC(0-24)
  AUC(0-t): 905 ng·h/mL
[4]; human, plasma, oral, 200 mg, MAD Cohort B 200 mg QD, dosing day 7, fasted, geometric mean (CV%)
  Cmax: 128 ng/mL
[4]; human, plasma, oral, 200 mg, MAD Cohort B 200 mg QD, dosing day 7, fasted, geometric mean (CV%), read-out: AUC(0-24)
  AUC(0-t): 308 ng·h/mL
[4]; human, plasma, oral, 200 mg, multiple dosing at a daily dose of 200 mg, read-out: Exposure level (AUC0-24)
  AUC(0-t): ≥ 300 ng·h/mL
[4]; human, plasma, oral, 300 mg, MAD Cohort C 300 mg QD, dosing day 1, fasted, geometric mean (CV%)
  Cmax: 910 ng/mL
[4]; human, plasma, oral, 300 mg, MAD Cohort C 300 mg QD, dosing day 1, fasted, geometric mean (CV%), read-out: AUC(0-24)
  AUC(0-t): 2210 ng·h/mL
[4]; human, plasma, oral, 300 mg, MAD Cohort C 300 mg QD, dosing day 7, fasted, geometric mean (CV%)
  Cmax: 307 ng/mL
[4]; human, plasma, oral, 300 mg, MAD Cohort C 300 mg QD, dosing day 7, fasted, geometric mean (CV%), read-out: AUC(0-24)
  AUC(0-t): 633 ng·h/mL
[4]; human, plasma, oral, MAD Cohort B 200 mg QD, dosing day 7, fasted, geometric mean (CV%), N=5
  half-life: ~10 h
[4]; trough (pre-dose) levels, repeated daily dosing
  Day by which steady state exposure appeared to be reached: ≤ 5 days
